Common to all, as to type: cell-based
The target of assay [1] is T1, Metabotropic glutamate receptor 5 (Homo sapiens, UniProt P41594). As to the kind of experiment: Activity at human mGluR5 expressed in CHO cells assessed as potentiation of glutamate response by FLIPR assay.
Target sequence in this assay (P41594 whole entry): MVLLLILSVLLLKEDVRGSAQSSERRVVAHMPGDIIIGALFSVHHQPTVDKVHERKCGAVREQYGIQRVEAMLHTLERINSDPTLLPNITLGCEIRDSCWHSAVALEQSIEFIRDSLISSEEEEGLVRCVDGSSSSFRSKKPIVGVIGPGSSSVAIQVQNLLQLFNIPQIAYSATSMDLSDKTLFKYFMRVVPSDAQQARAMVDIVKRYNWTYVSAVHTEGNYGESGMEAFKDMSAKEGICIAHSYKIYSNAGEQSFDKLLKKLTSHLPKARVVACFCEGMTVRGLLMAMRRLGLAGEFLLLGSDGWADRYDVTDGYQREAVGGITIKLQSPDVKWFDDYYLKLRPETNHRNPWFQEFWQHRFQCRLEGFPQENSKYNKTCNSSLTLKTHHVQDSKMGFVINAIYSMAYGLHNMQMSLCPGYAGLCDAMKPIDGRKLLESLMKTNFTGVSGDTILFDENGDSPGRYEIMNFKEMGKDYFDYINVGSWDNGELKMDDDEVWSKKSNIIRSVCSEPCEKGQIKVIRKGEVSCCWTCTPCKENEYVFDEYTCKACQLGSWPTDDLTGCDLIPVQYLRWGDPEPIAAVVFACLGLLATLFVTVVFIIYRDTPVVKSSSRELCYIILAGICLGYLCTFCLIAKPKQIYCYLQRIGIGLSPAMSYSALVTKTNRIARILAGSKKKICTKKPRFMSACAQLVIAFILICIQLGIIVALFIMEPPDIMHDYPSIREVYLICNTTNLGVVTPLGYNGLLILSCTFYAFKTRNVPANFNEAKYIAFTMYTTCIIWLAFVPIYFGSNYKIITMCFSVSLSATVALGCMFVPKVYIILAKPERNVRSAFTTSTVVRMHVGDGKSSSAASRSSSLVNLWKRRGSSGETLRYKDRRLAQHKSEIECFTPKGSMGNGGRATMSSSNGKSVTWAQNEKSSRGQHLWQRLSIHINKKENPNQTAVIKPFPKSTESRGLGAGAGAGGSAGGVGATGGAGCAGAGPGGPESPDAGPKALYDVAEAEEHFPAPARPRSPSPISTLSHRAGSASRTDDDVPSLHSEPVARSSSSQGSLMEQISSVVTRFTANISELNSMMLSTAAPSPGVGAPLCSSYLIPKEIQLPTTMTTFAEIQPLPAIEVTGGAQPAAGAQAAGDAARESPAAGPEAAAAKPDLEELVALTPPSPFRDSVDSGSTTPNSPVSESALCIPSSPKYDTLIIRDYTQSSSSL
In assay [2] the target is T1, Metabotropic glutamate receptor 5. As to the kind of experiment: Activity at human mGluR5 expressed in CHO cells assessed as potentiation of glutamate response by FLIPR assay relative to glutamate.
Target sequence in this assay (P41594 21-1212 limits assumed): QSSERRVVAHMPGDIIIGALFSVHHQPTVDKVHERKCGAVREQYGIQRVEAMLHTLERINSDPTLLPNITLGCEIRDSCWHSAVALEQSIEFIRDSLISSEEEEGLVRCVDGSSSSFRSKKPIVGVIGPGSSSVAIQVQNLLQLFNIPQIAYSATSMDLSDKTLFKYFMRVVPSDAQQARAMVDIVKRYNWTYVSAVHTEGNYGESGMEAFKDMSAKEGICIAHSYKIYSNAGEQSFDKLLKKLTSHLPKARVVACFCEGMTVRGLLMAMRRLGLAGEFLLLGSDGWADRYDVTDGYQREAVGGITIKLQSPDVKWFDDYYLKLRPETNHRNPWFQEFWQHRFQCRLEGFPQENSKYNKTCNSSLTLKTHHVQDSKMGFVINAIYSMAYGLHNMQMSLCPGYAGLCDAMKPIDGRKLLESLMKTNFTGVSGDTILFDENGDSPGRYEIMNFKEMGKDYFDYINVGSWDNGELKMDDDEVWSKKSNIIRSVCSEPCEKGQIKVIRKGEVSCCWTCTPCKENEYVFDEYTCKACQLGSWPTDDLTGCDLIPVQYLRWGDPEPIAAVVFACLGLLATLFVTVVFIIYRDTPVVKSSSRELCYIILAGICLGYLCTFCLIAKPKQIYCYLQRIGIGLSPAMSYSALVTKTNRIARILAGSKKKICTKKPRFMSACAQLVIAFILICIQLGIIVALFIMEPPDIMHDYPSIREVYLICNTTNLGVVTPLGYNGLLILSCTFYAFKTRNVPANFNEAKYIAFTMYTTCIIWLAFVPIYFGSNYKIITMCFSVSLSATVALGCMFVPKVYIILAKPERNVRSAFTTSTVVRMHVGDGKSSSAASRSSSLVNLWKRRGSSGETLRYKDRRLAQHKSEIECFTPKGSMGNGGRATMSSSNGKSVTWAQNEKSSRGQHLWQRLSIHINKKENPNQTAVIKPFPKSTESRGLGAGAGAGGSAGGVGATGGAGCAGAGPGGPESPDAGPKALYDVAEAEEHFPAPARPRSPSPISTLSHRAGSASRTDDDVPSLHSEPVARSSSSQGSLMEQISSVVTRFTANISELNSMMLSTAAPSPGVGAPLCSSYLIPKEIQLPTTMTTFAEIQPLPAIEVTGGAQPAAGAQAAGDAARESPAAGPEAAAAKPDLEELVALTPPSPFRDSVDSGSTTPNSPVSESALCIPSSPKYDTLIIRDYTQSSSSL
Assay [3] has as its target Metabotropic glutamate receptor 5 (Rattus norvegicus, UniProt P31424). As to the kind of experiment: Activity at rat mGluR5 expressed in CHO cells assessed as potentiation of glutamate response by FLIPR assay.

By EC50 is commonly meant the concentration at which the effect is half-maximal.

Chain of Metabotropic glutamate receptor 5 (Rattus norvegicus, UniProt P31424) (P31424 whole entry): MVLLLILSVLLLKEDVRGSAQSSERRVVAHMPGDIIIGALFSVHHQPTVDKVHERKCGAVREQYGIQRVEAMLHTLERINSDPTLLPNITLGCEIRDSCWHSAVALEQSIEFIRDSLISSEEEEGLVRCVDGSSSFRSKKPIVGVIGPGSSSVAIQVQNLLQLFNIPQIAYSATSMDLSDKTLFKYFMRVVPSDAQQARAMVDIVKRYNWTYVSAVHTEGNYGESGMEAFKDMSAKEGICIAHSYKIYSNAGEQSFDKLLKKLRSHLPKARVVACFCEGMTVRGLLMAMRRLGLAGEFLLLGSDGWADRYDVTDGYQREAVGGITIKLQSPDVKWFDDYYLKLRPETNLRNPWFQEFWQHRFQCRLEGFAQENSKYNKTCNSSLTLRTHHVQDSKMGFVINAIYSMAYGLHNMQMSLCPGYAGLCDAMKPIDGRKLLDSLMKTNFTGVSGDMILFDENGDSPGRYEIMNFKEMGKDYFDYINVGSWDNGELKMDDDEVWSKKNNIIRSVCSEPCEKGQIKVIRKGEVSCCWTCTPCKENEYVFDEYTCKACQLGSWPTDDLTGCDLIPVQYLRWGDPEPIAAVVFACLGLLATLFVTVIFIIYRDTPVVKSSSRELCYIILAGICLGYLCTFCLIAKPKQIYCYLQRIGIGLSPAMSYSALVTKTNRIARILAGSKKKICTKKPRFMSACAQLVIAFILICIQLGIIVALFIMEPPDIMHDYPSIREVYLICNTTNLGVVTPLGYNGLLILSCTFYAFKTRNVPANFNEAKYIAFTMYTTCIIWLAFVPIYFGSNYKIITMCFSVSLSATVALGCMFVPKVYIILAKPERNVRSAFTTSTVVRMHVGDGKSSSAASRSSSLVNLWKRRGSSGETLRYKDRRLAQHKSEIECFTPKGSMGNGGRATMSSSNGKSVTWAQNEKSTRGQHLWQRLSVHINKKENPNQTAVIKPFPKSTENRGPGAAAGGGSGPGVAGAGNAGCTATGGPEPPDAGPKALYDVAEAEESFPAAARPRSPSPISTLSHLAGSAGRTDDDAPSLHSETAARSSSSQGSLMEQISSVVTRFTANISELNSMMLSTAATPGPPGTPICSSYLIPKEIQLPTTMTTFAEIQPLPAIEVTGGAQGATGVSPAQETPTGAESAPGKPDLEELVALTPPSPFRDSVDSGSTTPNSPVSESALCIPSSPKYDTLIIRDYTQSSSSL

Regarding `O=C(Nc1ccc(Cl)cc1CN1C(=O)c2ccccc2C1=O)c1ncccn1`, the concentration for a half-maximal effect (EC50) in assay [1] is 2100 nM; in assay [3], over 1000 nM. In assay [2], the Activity was determined as 1.3.

In the case of `O=C(Nc1ccc(Br)cc1CN1C(=O)c2ccccc2C1=O)c1ccccn1`, the results for the half-maximal effective concentration (EC50) in assay [1] and in assay [3] were 750 nM and over 1000 nM, respectively. In addition, the Activity in assay [2] amounted to 7.6.

As to `O=C(Nc1ccc(Cl)cc1CN1C(=O)c2ccc(F)cc2C1=O)c1ccccn1`, in assay [1], the EC50 came to 330 nM. Besides, the Activity in assay [2] amounted to 4.6.

`O=C(Nc1ccc(Cl)cc1CN1C(=O)c2ccccc2C1=O)c1ccco1`: the EC50 in assay [1] was 2300 nM; in assay [3], over 1000 nM. In addition, in assay [2], the Activity came out at 6.2.

Turning to `CCOc1cccc2c1C(=O)N(Cc1cc(Br)ccc1NC(=O)c1ccccn1)C2=O`, the 50% effective concentration (EC50) in assay [1] was 720 nM. In addition, in assay [2], the Activity was determined as 10.7.

In the case of `O=C(Nc1ccc(Cl)cc1CN1C(=O)c2ccccc2C1=O)c1ncccc1O`, the EC50 in assay [1] is 260 nM; in assay [3], over 1000 nM. Besides, the Activity in assay [2] was determined as 11.3.

As to `O=C(Nc1ccccc1CN1C(=O)c2ccccc2C1=O)c1ccccn1`, the EC50 in assay [1] is 13900 nM. Also, in assay [2], the Activity is 3.4.

For `O=C(Nc1ccc(Cl)cc1CN1C(=O)c2ccccc2C1=O)C1CCCCC1`, the figures for the EC50 in assay [1] and in assay [3] were 1500 nM and over 1000 nM, respectively. The Activity in assay [2] amounted to 4.1.

For `O=C(Nc1ccc(Br)cc1CN1C(=O)c2ccc(F)cc2C1=O)c1ccccn1`, the EC50 in assay [1] was determined as 930 nM. In addition, in assay [2], the Activity is 11.1.

Turning to `COc1ccc(NC(=O)c2ccccn2)c(CN2C(=O)c3ccccc3C2=O)c1`, the EC50 in assay [1] was determined as 1400 nM. Also, the Activity in assay [2] is 3.5.

As for `O=C(Nc1ccc(Cl)cc1CN1C(=O)c2ccccc2C1=O)c1ccccn1` [listing 1 of 3 here], the Activity in assay [2] was 6.8.

In the case of `CCOc1cccc2c1C(=O)N(Cc1cc(Cl)ccc1NC(=O)c1ccccn1)C2=O`, in assay [1], the EC50 worked out at 280 nM. In addition, the Activity in assay [2] stood at 4.5.

`O=C(Nc1ccc(Cl)cc1CN1C(=O)c2ccccc2C1=O)c1ccccc1[N+](=O)[O-]`: the EC50 is 5700 nM in assay [1] and over 1000 nM in assay [3]. In addition, in assay [2], the Activity came out at 2.9.

Turning to `Cc1ccc2c(c1C)C(=O)N(Cc1cc(Br)ccc1NC(=O)c1ccccn1)C2=O`, the EC50 in assay [1] is over 100000 nM. Besides, in assay [2], the Activity came out at 0.6.

Turning to `COc1ccc2c(c1OC)C(=O)N(Cc1cc(Br)ccc1NC(=O)c1ccccn1)C2=O`, in assay [1], the 50% effective concentration (EC50) is over 100000 nM. Further, in assay [2], the Activity amounted to 0.6.

As for `O=C(Nc1ccc(F)cc1CN1C(=O)c2ccccc2C1=O)c1ccccn1`, the concentration giving a half-maximal response (EC50) in assay [1] turned out to be 1500 nM. Further, in assay [2], the Activity worked out at 2.6.

`Cc1ccc2c(c1C)C(=O)N(Cc1cc(Cl)ccc1NC(=O)c1ccccn1)C2=O`: the EC50 in assay [1] stood at 2200 nM. Moreover, the Activity in assay [2] came out at 3.7.

Consider `COc1ccccc1C(=O)Nc1ccc(Cl)cc1CN1C(=O)c2ccccc2C1=O`, for which the values for the EC50 in assay [1] and in assay [3] were over 100000 nM and over 1000 nM, respectively. The Activity in assay [2] came to 0.6.

On to `O=C(Nc1ccc(Cl)cc1CN1C(=O)c2ccccc2C1=O)c1ccccn1` [listing 2 of 3 here], for which, in assay [1], the EC50 worked out at 250 nM.

`COc1cccc(C(=O)Nc2ccc(Cl)cc2CN2C(=O)c3ccccc3C2=O)c1`: the EC50 in assay [1] was 1500 nM; in assay [3], over 1000 nM. For the same compound, in assay [2], the Activity worked out at 1.6.

Turning to `O=C(Nc1ccc(Cl)cc1CN1C(=O)c2ccccc2C1=O)c1cncs1`, the values for the EC50 in assay [1] and in assay [3] were 1900 nM and over 1000 nM, respectively. The Activity in assay [2] was determined as 9.2.

In the case of `O=C(Nc1ccc(Cl)cc1CN1C(=O)c2ccccc2C1=O)c1cccnn1`, the EC50 in assay [1] is over 100000 nM; in assay [3] it was over 1000 nM. The Activity in assay [2] was 0.6.

In the case of `O=C(Nc1ccc(Cl)cc1CN1C(=O)c2ccccc2C1=O)c1ccccc1`, the half-maximal effective concentration (EC50) in assay [1] was over 100000 nM; in assay [3], over 1000 nM. Further, the Activity in assay [2] turned out to be 0.6.

Take `O=C(Nc1ccc(Cl)cc1CN1C(=O)c2ccccc2C1=O)c1cccnc1`: the values for the concentration for a half-maximal effect (EC50) in assay [1] and in assay [3] were 35000 nM and over 1000 nM, respectively. For the same compound, the Activity in assay [2] came out at 1.8.

For the compound `O=C(/C=C/c1cc(Cl)ccc1NC(=O)c1ccccn1)c1ccccc1`, the EC50 in assay [1] stood at 1700 nM. Besides, the Activity in assay [2] was 8.

With `COc1ccc2c(c1OC)C(=O)N(Cc1cc(Cl)ccc1NC(=O)c1ccccn1)C2=O`, the EC50 in assay [1] was over 100000 nM. Further, in assay [2], the Activity was determined as 0.6.

Consider `CCN(Cc1cc(Cl)ccc1NC(=O)c1ccccn1)C(=O)c1cc(Cl)cc(Cl)c1`, for which the EC50 in assay [1] is 470 nM. Besides, the Activity in assay [2] turned out to be 5.9.

Consider `O=C(Nc1ccc(Cl)cc1CN1C(=O)c2ccccc2C1=O)c1ccccc1O`, for which the Activity in assay [2] was determined as 7.1.

As to `O=C(CCc1cc(Cl)ccc1NC(=O)c1ccccn1)c1ccccc1`, in assay [1], the EC50 was determined as 4500 nM.

With `O=C(Nc1ccc(Cl)cc1CN1C(=O)c2ccccc2C1=O)c1ccccc1C(F)(F)F`, the EC50 in assay [1] was 5700 nM; in assay [3], over 1000 nM. Further, the Activity in assay [2] came out at 3.5.

On to `O=C(Nc1ccc(Cl)cc1CN1C(=O)c2ccccc2C1=O)c1ccccn1` [listing 3 of 3 here], for which, in assay [1] (cho), the EC50 stood at 250 nM.

On to `O=C(Nc1cccc(F)c1CN1C(=O)c2ccccc2C1=O)c1ccccn1`, for which the EC50 in assay [1] is over 100000 nM. Also, the Activity in assay [2] turned out to be 0.9.

The record behind these values is ChEMBL document CHEMBL1139092, “Challenges in the development of mGluR5 positive allosteric modulators: the discovery of CPPHA” (Bioorg Med Chem Lett, 2007).
